Data reported in ChEMBL document CHEMBL3272026, “On the structure of medicinal chemistry” (J Med Chem, 1976).

Assays:
[1] = Lipophilicity, log P of the compound; type: physicochemical; details: octanol/water
[2] = test system: Mollusca; assay: Increase in mollusk membrane potential assessed as concentration required to raise 20 mV; type: functional, cell membranes
[3] = test system: Escherichia coli; assay: Antimicrobial activity against Escherichia coli; type: functional
[4] = target: Alcohol dehydrogenase (Homo sapiens) (UniProt P07327+P08319+P00325+P00326+P40394+P11766+P28332); assay: Binding affinity to alcohol dehydrogenase (unknown origin); type: protein assay

Row | Structure (SMILES) | log(1/K) [4] | log(1/C) [2] | log(1/C) [3] | further results
1 | O=C(O)c1cc(Cl)cc(Cl)c1O | – | 3.48 | – | logP [1]: 0.23
2 | Nc1ccc(S(=O)(=O)Nc2ccc(Cl)cc2)cc1 | – | – | 4.8 | –
3 | CCOc1cccc(NS(=O)(=O)c2ccc(N)cc2)c1 | – | – | 4.88 | –
4 | Cc1cccc(Nc2ccccc2C(=O)O)c1C [MEFENAMIC ACID] | – | 3.48 | – | logP ([1]; read-out: logP): 0.28

Now from value to compound, other results behind:

Row | log(1/K) [4] | Structure (SMILES) | log(1/C) [2] | log(1/C) [3] | further results
5 | -2.6 | NC(=O)c1ccc(F)cc1 | – | – | –
6 | -2.6 | NC(=O)c1ccc([N+](=O)[O-])cc1 | – | – | –
